Laboratory results published in article PMC11998009, “Identification of a New FtsZ Inhibitor by Virtual Screening, Mechanistic Insights, and Structure–Activity Relationship Analyses” (ACS Infectious Diseases, 2025).
Converted amounts (≈) assume the structure as drawn. Like-named read-outs stand apart in the source and are kept apart here.

Assays:
[1] = tested on: S. aureus cystic fibrosis clinical isolates; assay: MIC for CF clinical isolates; type: cell-based
K. pneumoniae ATCC13883 = assay: MIC / checkerboard with PaβN; type: cell-based
FtsZSa = biological target: T1, FtsZSa (Staphylococcus aureus, UniProt P0A031); assay: FtsZSa polymerization, 90° light scattering
T1 sequence (P0A031 1-390): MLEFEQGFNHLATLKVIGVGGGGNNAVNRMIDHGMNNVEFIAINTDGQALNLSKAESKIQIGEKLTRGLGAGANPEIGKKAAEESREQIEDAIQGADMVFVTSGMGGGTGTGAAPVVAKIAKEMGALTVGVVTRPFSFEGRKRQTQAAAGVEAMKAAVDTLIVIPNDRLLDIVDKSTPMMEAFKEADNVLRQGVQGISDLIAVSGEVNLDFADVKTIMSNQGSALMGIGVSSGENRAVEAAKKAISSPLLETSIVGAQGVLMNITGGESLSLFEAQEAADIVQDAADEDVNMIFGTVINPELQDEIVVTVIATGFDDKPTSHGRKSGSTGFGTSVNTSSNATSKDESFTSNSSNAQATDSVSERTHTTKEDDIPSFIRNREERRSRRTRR

[2] = biological target: T2, S. aureus FtsZ protein (FtsZSa) (Staphylococcus aureus, UniProt P0A031); assay: In vitro FtsZ GTPase activity (PK/LDH coupled assay); type: biochemical; set-up: Residual GTPase activity: concentration or dose not given beside the values
T2 construct: made in house; host or cells: Escherichia coli BL21DE3
T2 sequence (P0A031 1-390): T1 sequence (P0A031 1-390)
Description: In vitro FtsZ GTPase activity
FtsZSa and FtsZPa were expressed and purified as previously described.13,14 GTPase activity was assayed at 30°C using a pyruvate kinase–L-lactic dehydrogenase (PK/LDH) spectrophotometric coupled assay, as previously described15 with minor modification. The reaction mixture was first set up to contain 50 mM MES […]
phosphoenolpyruvate, and 4.8 μM of FtsZ. The assay was initiated by the addition of 1 mM GTP. The experiments were performed in triplicate. The inhibitory concentration that reduced the enzymatic activity by half (IC50) was determined using Prism 10. […]

FtsZPa = biological target: T3, FtsZPa (Pseudomonas aeruginosa, UniProt P47204); assay: FtsZPa GTPase activity; type: biochemical; set-up: made in house; host or cells: Escherichia coli BL21DE3
T3 sequence (P47204 1-394): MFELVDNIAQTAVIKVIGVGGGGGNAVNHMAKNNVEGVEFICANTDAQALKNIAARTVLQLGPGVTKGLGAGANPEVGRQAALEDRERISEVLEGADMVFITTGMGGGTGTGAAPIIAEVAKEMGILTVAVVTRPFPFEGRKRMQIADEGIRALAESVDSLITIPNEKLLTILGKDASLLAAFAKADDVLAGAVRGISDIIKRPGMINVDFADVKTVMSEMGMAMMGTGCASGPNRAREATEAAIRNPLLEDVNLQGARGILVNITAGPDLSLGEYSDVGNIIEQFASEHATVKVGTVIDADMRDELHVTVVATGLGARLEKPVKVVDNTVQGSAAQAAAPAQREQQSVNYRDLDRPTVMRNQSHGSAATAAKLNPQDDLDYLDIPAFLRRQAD

CFBE41o- cells = assay: MTT cell viability assay on CFBE41o-; conditions: CFBE41o-, 12.5 μM (4.8 μg/mL), 6 h
[3] = MTT cell viability assay on CFBE41o-; conditions: human, CFBE41o- cells
G. mellonella = assay: Toxicity in uninfected G. mellonella larvae; type: in vivo, Galleria mellonella; conditions: 40 mg/kg
[4] = tested on: S. aureus ATCC25923 biofilms; assay: Biofilm inhibition assay (CFU counting, CLSM); type: cell-based
S. aureus ATCC25923 = assay: Galleria mellonella infection model

Work on `COc1ccc(Cc2nnc(SC3=CS(=O)(=O)c4ccccc43)o2)cc1` [C11] yielded an MIC ([1]; S. aureus BG8 MRSA, single drug) of 2 µg/mL (≈ 5.18 µM), an MIC ([1]; S. aureus BG9 MRSA, single drug) of 2 µg/mL (≈ 5.18 µM) and an MIC ([1]; S. aureus BG10 MRSA, single drug) of 2 µg/mL (≈ 5.18 µM). The MIC ([1]; Staphylococcus aureus, MRSA, S. aureus BG6 MRSA, read-out: MIC) was 2 µg/mL (≈ 5.18 µM), the MIC ([1]; Staphylococcus aureus, MRSA, S. aureus BG7 MRSA smv, read-out: MIC) was 4 µg/mL (≈ 10.4 µM) and the MIC ([1]; Staphylococcus aureus, MRSA, S. aureus BG8 MRSA, single drug, read-out: MIC) was 2 µg/mL (≈ 5.18 µM). The MIC ([1]; Staphylococcus aureus, MRSA, S. aureus BG9 MRSA, single drug, read-out: MIC) was 2 µg/mL (≈ 5.18 µM), the MIC ([1]; Staphylococcus aureus, MRSA, S. aureus BG10 MRSA, single drug, read-out: MIC) was 2 µg/mL (≈ 5.18 µM) and the MIC ([1]; Staphylococcus aureus, S. aureus BG1, read-out: MIC) was 2 µg/mL (≈ 5.18 µM). The MIC ([1]; Staphylococcus aureus, S. aureus BG2, read-out: MIC) was 4 µg/mL (≈ 10.4 µM), the MIC ([1]; Staphylococcus aureus, S. aureus BG3, read-out: MIC) was 4 µg/mL (≈ 10.4 µM) and the MIC ([1]; Staphylococcus aureus, S. aureus BG4, read-out: MIC) was 8 µg/mL (≈ 20.7 µM). For the same compound, the MIC ([1]; Staphylococcus aureus, S. aureus BG5, read-out: MIC) was 8 µg/mL (≈ 20.7 µM), the MIC ([1]; Staphylococcus aureus, S. aureus SA1, read-out: MIC) was 4 µg/mL (≈ 10.4 µM) and the MIC ([1]; Staphylococcus aureus, S. aureus SA2, read-out: MIC) was 4 µg/mL (≈ 10.4 µM). It also gave an MIC ([1]; Staphylococcus aureus, S. aureus SA3, read-out: MIC) of 2 µg/mL (≈ 5.18 µM), an MIC ([1]; Staphylococcus aureus, S. aureus SA4, read-out: MIC) of 2 µg/mL (≈ 5.18 µM) and an MIC ([1]; Staphylococcus aureus, S. aureus SA5, read-out: MIC) of 4 µg/mL (≈ 10.4 µM). The MIC ([1]; Staphylococcus aureus, S. aureus SA6, read-out: MIC) was 2 µg/mL (≈ 5.18 µM), the MIC ([1]; Staphylococcus aureus, S. aureus SA7, read-out: MIC) was 2 µg/mL (≈ 5.18 µM) and the MIC ([1]; Staphylococcus aureus, S. aureus SA8, read-out: MIC) was 2 µg/mL (≈ 5.18 µM). For the same compound, the MIC ([1]; Staphylococcus aureus, S. aureus SA9, read-out: MIC) was 4 µg/mL (≈ 10.4 µM), the MIC ([1]; Staphylococcus aureus, S. aureus SA10, read-out: MIC) was 2 µg/mL (≈ 5.18 µM) and the MIC ([1]; Staphylococcus aureus, S. aureus SA11, read-out: MIC) was 4 µg/mL (≈ 10.4 µM). It also gave an MIC ([1]; Staphylococcus aureus, S. aureus SA12, read-out: MIC) of 4 µg/mL (≈ 10.4 µM), an MIC ([1]; Staphylococcus aureus, S. aureus SA13, read-out: MIC) of 4 µg/mL (≈ 10.4 µM) and an MIC ([1]; Staphylococcus aureus, S. aureus SA14, read-out: MIC) of 2 µg/mL (≈ 5.18 µM). The MIC ([1]; Staphylococcus aureus, S. aureus SA15, read-out: MIC) was 4 µg/mL (≈ 10.4 µM), the MIC ([1]; Staphylococcus aureus, S. aureus SA16, read-out: MIC) was 4 µg/mL (≈ 10.4 µM) and the MIC ([1]; Staphylococcus aureus, S. aureus SA17, read-out: MIC) was 2 µg/mL (≈ 5.18 µM). It also gave an MIC ([1]; Staphylococcus aureus, S. aureus SA18, read-out: MIC) of 4 µg/mL (≈ 10.4 µM), an MIC ([1]; Staphylococcus aureus, S. aureus SA19, read-out: MIC) of 2 µg/mL (≈ 5.18 µM) and an MIC ([1]; Staphylococcus aureus, S. aureus SA20, read-out: MIC) of 4 µg/mL (≈ 10.4 µM). It also gave an MIC ([1]; Staphylococcus aureus, S. aureus SA21, read-out: MIC) of 2 µg/mL (≈ 5.18 µM), an MIC ([1]; Staphylococcus aureus, S. aureus SA22, read-out: MIC) of 2 µg/mL (≈ 5.18 µM) and an MIC ([1]; Staphylococcus aureus, S. aureus SA23, read-out: MIC) of 4 µg/mL (≈ 10.4 µM). The MIC ([1]; Staphylococcus aureus, S. aureus SA24, read-out: MIC) was 2 µg/mL (≈ 5.18 µM), the MIC ([1]; Staphylococcus aureus, S. aureus SA25, read-out: MIC) was 2 µg/mL (≈ 5.18 µM) and the MIC ([1]; Staphylococcus aureus, panel of clinical isolates from cystic fibrosis patients, read-out: MIC values for the vast majority of the clinical isolates) was 2 to 4 µg/mL (≈ 5.18 to 10.4 µM). The MIC (K. pneumoniae ATCC13883; K. pneumoniae ATCC13883, C11 alone) was no less than 128 µg/mL, the MIC (K. pneumoniae ATCC13883; Klebsiella pneumoniae, ATCC13883, K. pneumoniae ATCC13883, + PaβN […], read-out: MIC) was 8 µg/mL and the MIC (K. pneumoniae ATCC13883; Klebsiella pneumoniae, ATCC13883, K. pneumoniae ATCC13883, C11 alone, read-out: MIC) was no less than 128 µg/mL. The IC50 (FtsZSa) was 48 µM, the “Effect on FtsZSa GTPase activity” value [2] was “did not affect the FtsZSa GTPase activity” and the “Residual GTPase activity” value ([2]; S. aureus FtsZ protein) was 82.2%. For the same compound, the “Effect on FtsZPa GTPase activity” value (FtsZPa) was “did not interfere with the GTPase activity”, the “Percentage of live cells (MTT)” value (CFBE41o- cells) was “higher than 90%” and the viability at 6 h, 25 µM [3] was 65%. The viability at 24 h, 25 µM [3] was 25%, the “Toxicity for G. mellonella (survival of not infected, treated larvae)” value (G. mellonella) was “not toxic” and the “Biofilm formation by CLSM and COMSTAT2” value ([4]; 2 μg/mL) was “only slightly affected biofilm formation”. For the same compound, the “Biofilm formation by CFU counting” value ([4]; 2- or 4-fold the MIC (4–8 μg/mL)) was “almost completely inhibit biofilm formation”, the “Biofilm formation by CLSM and COMSTAT2” value ([4]; 4 and 8 μg/mL) was “almost completely abolished it” and the “Survival rate of infected larvae” value (S. aureus ATCC25923; 40 mg/kg 2 h after infection, 2 days postinfection, DMSO group 46%) was 77%. The “Survival rate of infected larvae” value (S. aureus ATCC25923; 40 mg/kg, after 6 days) was “significantly higher than the mock-treated group” and the “Survival rate of infected larvae” value (S. aureus ATCC25923; 40 mg/kg, three days postinfection, DMSO group 32%) was 58%.
